Test results from ChEMBL document CHEMBL4834409 (J Med Chem, 2021).
Activity calls are given as the source filed them. The calls are words filed in the database; no cut-off is given here.

Key:
[1] = molecular target: T1, Melatonin receptor type 1B (Homo sapiens) (UniProt P49286); experiment: Displacement of 2-[125l]-lodomelatonin from human MT2 expressed in CHO cell membrane at 100 nM incubated for 150 mins by radioligand binding assay relative to control; assay type: cell membranes
T1 sequence (whole entry): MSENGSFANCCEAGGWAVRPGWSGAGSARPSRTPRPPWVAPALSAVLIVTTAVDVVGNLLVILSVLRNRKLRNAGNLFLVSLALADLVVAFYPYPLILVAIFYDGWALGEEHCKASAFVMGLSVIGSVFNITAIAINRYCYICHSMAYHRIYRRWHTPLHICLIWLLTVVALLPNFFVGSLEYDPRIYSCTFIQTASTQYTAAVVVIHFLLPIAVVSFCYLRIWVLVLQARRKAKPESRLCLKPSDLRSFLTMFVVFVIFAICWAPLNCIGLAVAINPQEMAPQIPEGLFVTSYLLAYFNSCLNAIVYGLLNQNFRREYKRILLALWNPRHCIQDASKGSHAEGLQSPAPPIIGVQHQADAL

[2] = molecular target: T2, Melatonin receptor type 1A (Homo sapiens, UniProt P48039); experiment: Displacement of 2-[125l]-lodomelatonin from human MT1 expressed in CHO cell membrane incubated for 150 mins by radioligand binding assay; assay type: cell membranes
[3] = molecular target: T3, Melatonin receptor type 1B (Homo sapiens, UniProt P49286); experiment: Displacement of 2-[125l]-lodomelatonin from human MT2 expressed in CHO cell membrane incubated for 150 mins by radioligand binding assay; assay type: cell membranes
T3 sequence (P49286 whole entry): T1 sequence (whole entry)

[4] = Clearance in rat hepatic microsomes at 1 umol/L incubated for 20 mins in presence of NADPH generating system by HPLC-UV analysis; assay type: ADME, Microsome; settings: liver microsomes, dose 1 µmol/L, read-out: CLH
[5] = Oral bioavailability in Sprague-Dawley rat at 1 mg/kg administered as casette dosing by LC/MS/MS analysis; assay type: ADME, organism-based; settings: in vivo
[6] = Clearance in human hepatic microsomes at 1 umol/L incubated for 20 mins in presence of NADPH generating system by HPLC-UV analysis; assay type: ADME, Microsome; settings: liver microsomes, dose 1 µmol/L, read-out: CLH
[7] = molecular target: T2, Melatonin receptor type 1A; experiment: Displacement of 2-[125l]-lodomelatonin from human MT1 expressed in CHO cell membrane at 100 nM incubated for 150 mins by radioligand binding assay relative to control; assay type: cell membranes
[8] = Drug concentration in Sprague-Dawley rat plasma at 0.1 mg/kg, po after 60 mins by LC/MS/MS analysis; assay type: ADME, organism-based
[9] = Ratio of drug concentration in brain to plasma in Sprague-Dawley rat at 0.1 mg/kg, po after 60 mins by LC/MS/MS analysis; assay type: ADME, organism-based; settings: read-out: BPR
[10] = molecular target: T3, Melatonin receptor type 1B; experiment: Agonist activity at human MT2 expressed in CHO-K1 cells assessed as inhibition of forskolin-induced cAMP accumulation incubated for 30 mins by AlphaScreen assay; assay type: functional, cell-based
[11] = molecular target: T2, Melatonin receptor type 1A; experiment: Agonist activity at human MT1 expressed in CHO-K1 cells assessed as inhibition of forskolin-induced cAMP accumulation incubated for 30 mins by AlphaScreen assay; assay type: functional, cell-based
Felis catus = experiment: Hypnotic activity in cats assessed as increase in total sleep time at 10 mg/kg, po after 8 hrs by EEG analysis; assay type: functional, organism-based
[12] = Drug concentration in Sprague-Dawley rat brain at 0.1 mg/kg, po after 60 mins by LC/MS/MS analysis; assay type: ADME, organism-based; settings: read-out: Ct
[13] = Drug concentration in Sprague-Dawley rat brain at 1 mg/kg, po after 60 mins by LC/MS/MS analysis; assay type: ADME, organism-based; settings: read-out: Ct
[14] = molecular target: T2, Melatonin receptor type 1A; experiment: Binding affinity to human MT1 expressed in CHO cells; assay type: cell-based
[15] = Drug concentration in Sprague-Dawley rat plasma at 1 mg/kg, po after 60 mins by LC/MS/MS analysis; assay type: ADME, organism-based
[16] = Oral bioavailability in Sprague-Dawley rat at 1 mg/kg by LC/MS/MS analysis; assay type: ADME, organism-based; settings: in vivo
[17] = Ratio of drug concentration in brain to plasma in Sprague-Dawley rat at 1 mg/kg, po after 60 mins by LC/MS/MS analysis; assay type: ADME, organism-based; settings: read-out: BPR
[18] = molecular target: T3, Melatonin receptor type 1B; experiment: Binding affinity to human MT2 expressed in CHO cells; assay type: cell-based

T2 sequence (P48039 whole entry): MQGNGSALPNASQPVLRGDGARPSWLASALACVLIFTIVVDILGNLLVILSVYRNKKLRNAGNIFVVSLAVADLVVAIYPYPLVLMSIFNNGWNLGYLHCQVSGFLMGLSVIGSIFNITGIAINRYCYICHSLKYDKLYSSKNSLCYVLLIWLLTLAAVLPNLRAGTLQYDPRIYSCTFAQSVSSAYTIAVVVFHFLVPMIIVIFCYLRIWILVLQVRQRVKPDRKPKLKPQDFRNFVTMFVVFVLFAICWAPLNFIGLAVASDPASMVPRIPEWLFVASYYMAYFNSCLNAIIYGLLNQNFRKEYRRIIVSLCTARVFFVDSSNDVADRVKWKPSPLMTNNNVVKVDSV

| SMILES | Ki [2] [nM] | Ki [3] [nM] | microsomal CLint at 1 µM [4] [µL/min/mg] | bioavailability [5] [%] | microsomal CLint at 1 µM [6] [µL/min/mg] | other results |
| --- | --- | --- | --- | --- | --- | --- |
| CC(=O)NCCC1CCc2ccn3nc(C)c(C)c3c21 (centres undefined) | 9.3 | – | – | – | – | inhibition [1]: < 50% |
| CC(=O)NCCC1CCc2ccc3nc(Cc4ccccc4)oc3c21 (centres undefined) | 4.4 | 0.12 | – | – | – | – |
| CCC(=O)NCCC1CCc2ccc3nc(C)sc3c21 (centres undefined) | 0.027 | 0.058 | 379 | 3.2 | 41 | – |
| CC(=O)NCCC1CCc2ccn3nc(C)cc3c21 (centres undefined) | 0.2 | 1.4 | 42 | 14.3 | 14 | – |
| CCC(=O)NCCC1CCc2ccc3nn(C)cc3c21 (centres undefined) | 0.3 | 0.35 | 79 | 13.7 | 23 | – |
| CC(=O)NCCC1CCc2ccc3nc(CO)oc3c21 (centres undefined) | 1.2 | 1.1 | – | – | – | – |
| CCOC(=O)c1c(C)nn2ccc3c(c12)C(CCNC(C)=O)CC3 (centres undefined) | – | – | – | – | – | inhibition [1]: < 50%; inhibition [7]: < 50% |
| CC(=O)NCC[C@@H]1CCc2ccc3nc(C)oc3c21 | 0.031 | 0.07 | – | – | – | concentration at 1 h [8]: 2.9 ng/mL; Kp at 1 h [9]: 0.48; EC50 [10]: 0.51 nM; EC50 [11]: 0.015 nM; Activity (Felis catus): Active; concentration at 1 h [12]: 1.4 ng/g |
| CC(=O)NCCC1CCc2ccc3ncoc3c21 (centres undefined) | 0.45 | 0.073 | – | – | – | – |
| CCC(=O)NCC[C@@H]1CCc2ccc3c(c21)CCO3 [RAMELTEON] | – | – | 126 | – | 51 | concentration at 1 h [13]: 17 ng/g; Ki [14]: 0.014 nM; concentration at 1 h [15]: 15 ng/mL; bioavailability [16]: 8.5%; Kp at 1 h [17]: 1.1; Ki [18]: 0.112 nM |
| CCc1nc2ccc3c(c2o1)C(CCNC(C)=O)CC3 (centres undefined) | 0.22 | 0.16 | – | – | – | – |
| COc1nc2ccc3c(c2o1)C(CCNC(C)=O)CC3 (centres undefined) | 0.45 | 0.15 | – | – | – | – |
| CCC(=O)NCCC1CCc2ccc3nc(C)oc3c21 (centres undefined) | 0.067 | 0.088 | 96 | 6.8 | 29 | – |
| CC(=O)NCC[C@H]1CCc2ccc3nc(C)oc3c21 | 23 | 6.1 | – | – | – | – |
| CC(=O)NCCC1CCc2ccc3nc(-c4ccccc4)oc3c21 (centres undefined) | 1.3 | 0.23 | – | – | – | – |
| CC(=O)NCCC1CCc2ccc3nn(C)cc3c21 (centres undefined) | 0.35 | 0.75 | 44 | 20.9 | 5 | – |
| CC(=O)NCCC1CCc2ccc3nc(C)oc3c21 (racemic) | 0.067 | 0.13 | 34 | 18.5 | – | – |
| CC(=O)NCCC1CCc2ccc3nc(C)sc3c21 (centres undefined) | 0.037 | 0.086 | 188 | 4.8 | 45 | – |
| CC(=O)NCCC1CCc2ccc3nc(C4CC4)oc3c21 (centres undefined) | 0.39 | 0.15 | – | – | – | – |
| CCC(=O)NCCC1CCc2ccn3nc(C)cc3c21 (centres undefined) | 0.17 | 0.95 | 84 | – | 20 | – |
